Data set [1] has as its system macrophages. Put plainly: in vitro macrophage differentiation in the presence of ITF3756. It is filed as cell-based.
The conditions of data set [2]: rat, in vivo, 1000 mg/kg.
Data set [3] concerns PBMC. Nature of the data set: Quantitative real-time PCR gene modulation in PBMC. The note with it: PBMC treated with 1 μM ITF3756, 4 hours; qPCR vs vehicle-treated cells. Format: cell-based, human. The method, then:
The gene expression has been determined by comparing the expression of the above genes in the treated cells versus vehicle-treated cells. PBMC were resuspended in RPMI 1640 medium (Dutch modified, ThermoFisher) at the density of 1×10^6 cells/ml. Cells were plated in 6-well plates (Corning), 3 ml per well. Cells were treated with […] at four concentrations: 0.25, 0.5, 1 and 2 μM. Each treatment concentration was replicated in 3 wells for experimental triplicate test. Vehicle (DMSO 0.05%) treated cells were plated at the same density and volumes. Plates were incubated for 4 hours at 37° C. 5% C02. At the end of treatment incubation cells were collected for total RNA extraction. After treatment with the test compound, PBMC were withdrawn from 6-well plates and collected in 15 ml tubes (Falcon). Wells were washed once with 1 ml of PBS pH 7.4 (ThermoFisher) and the wash volume was added to the collected cell suspensions. […] RNA concentration was determined using Nano Drop 1000 spectrophotometer. […] 3 μl of cDNA corresponding to 40 ng of template were added to PCR reaction reagent for a total volume of 15 μl as shown below: The level of mRNA expression modulation was evaluated comparing the mRNA level in treated versus not-treated samples; all data were normalized versus the average expression signal of three housekeeping genes (reference genes: UBC, B2M and HPRT1) in the corresponding samples. […]
A general note: Real-time PCR tracks product formation cycle by cycle.

The test system of data set [4] is tumor microenvironment of CT26-bearing animals. Nature of the data set: Ex-vivo RNAseq gene expression in tumor microenvironment of CT26-bearing mice, responders vs non responders. Details: species or system BALB/c mice. To be noted: RNAseq total counts. As to the method:
Adult BALB/c mice were injected s.c. with 1×10^6 CT26 tumor cells (diluted to 100 μl with phosphate buffered saline) and treated with anti-PD1 or ITF3756 when the tumor volume reached 75-100 mm^3, to explore the modulation of genes in the tumor microenvironment by RNAseq. Since ITF3756 acts on the PD-1/PD-L1 axis, this approach allows the identification of genes specific and common to both treatments. The overall schedule is described in Table 9.
RNA was extracted from flash frozen tumors using the Qiagen extraction kit and stored at −80° C. A paired-end sequencing was chosen, in which short reads are obtained from ends of DNA fragments for ultra-high-throughput sequencing. Prior to further analysis, a quality check was performed on the sequencing data. All samples contain sequences 75 nucleotides long (75 nt×2).
The RNA-Seq analysis pipeline involved several steps: • 1. Quality Control of the reads, • 2. Removal of low quality reads • 3. Reads spliced Alignment • 4. Transcriptome expression quantification analysis
The sample was mapped on reference Mus musculus genome (mm10) using the bioinformatics tool STAR (version 2.4.0d), with the standard parameters for paired reads. The reference track was the assembly mm10 obtained from Refseq. […] Average mapping ratio was above 93% and Ribosomal content was below 1% for all samples.
The quantification of transcripts expressed for each sequenced sample was performed using Cufflinks. The units of measurement used in Cufflinks is FPKM (Fragments Per Kilobase of transcript per Million mapped reads) and it is meant to be a measure of relative abundance of a transcript/gene in a RNA pool. It is not intended to be used directly for Differential Expression but it is meant to be human readable, and takes into account main technical confounding factors such as millions of reads and gene length.
Responders and non-responders were selected based on tumor volume at day 20. […]
Statistical significance was determined by unpaired t-test using GraphPad software (version 9), p-values […] were considered significant.

Consider `O=C(NO)c1ccc(Cn2nnnc2-c2cccs2)cc1` [ITF3756, N-hydroxy-4-((5-(thiophen-2-yl)-1 H-tetrazol-1-yl)methyl)benzamide], for which the M1 macrophages result in data set [1] is “increase in M1 macrophages”. For the same compound, in data set [2], the tolerability result is “well tolerated”. Also, in data set [3], the IRF6 gene modulation entry was “upregulation” and the STAB1 gene modulation result is “downmodulation”. Further, the “IRF6 expression in the tumor microenvironment, responders compared to non responders” value in data set [4] (p<0.1) is “striking expression upregulation”. Further, in data set [4] (unpaired t-test), the “CD40 expression in the tumor microenvironment, responders compared to non-responder mice” value was “statistically significant upregulation” and the “MMP9 expression in the tumor microenvironment, responders compared to non responders” value is “statistically significant reduction”.

Source of the values: patent publication US20250011878A1, “METHOD TO DETECT RNA BIOMARKERS” (ITALFARMACO SPA, priority 2021, published 2025).
